One assay deals with T1, sGC α1/β1 heterodimer (Homo sapiens, UniProt Q02108+Q02153).
T1 construct: expressed in transfected cells
T1 sequence (Q02108 1-690): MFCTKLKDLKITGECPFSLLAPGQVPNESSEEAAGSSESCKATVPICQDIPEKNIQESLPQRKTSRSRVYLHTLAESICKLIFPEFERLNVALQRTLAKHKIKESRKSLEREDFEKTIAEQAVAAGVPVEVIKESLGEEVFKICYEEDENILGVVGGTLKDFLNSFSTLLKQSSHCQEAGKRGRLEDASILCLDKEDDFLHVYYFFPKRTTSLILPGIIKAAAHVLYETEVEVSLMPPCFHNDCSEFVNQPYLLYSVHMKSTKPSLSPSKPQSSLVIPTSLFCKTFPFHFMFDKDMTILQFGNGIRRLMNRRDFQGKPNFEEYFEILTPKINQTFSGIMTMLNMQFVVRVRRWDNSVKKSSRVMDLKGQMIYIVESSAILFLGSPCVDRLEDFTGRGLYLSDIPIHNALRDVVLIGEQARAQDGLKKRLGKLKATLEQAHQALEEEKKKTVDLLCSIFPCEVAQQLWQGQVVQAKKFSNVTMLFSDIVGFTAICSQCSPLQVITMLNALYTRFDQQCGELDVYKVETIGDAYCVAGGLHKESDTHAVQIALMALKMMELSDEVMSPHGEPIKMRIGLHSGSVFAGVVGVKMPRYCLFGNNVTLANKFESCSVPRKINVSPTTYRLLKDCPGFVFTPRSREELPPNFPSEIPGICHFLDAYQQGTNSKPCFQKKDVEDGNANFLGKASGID
T1 sequence (Q02153 1-619): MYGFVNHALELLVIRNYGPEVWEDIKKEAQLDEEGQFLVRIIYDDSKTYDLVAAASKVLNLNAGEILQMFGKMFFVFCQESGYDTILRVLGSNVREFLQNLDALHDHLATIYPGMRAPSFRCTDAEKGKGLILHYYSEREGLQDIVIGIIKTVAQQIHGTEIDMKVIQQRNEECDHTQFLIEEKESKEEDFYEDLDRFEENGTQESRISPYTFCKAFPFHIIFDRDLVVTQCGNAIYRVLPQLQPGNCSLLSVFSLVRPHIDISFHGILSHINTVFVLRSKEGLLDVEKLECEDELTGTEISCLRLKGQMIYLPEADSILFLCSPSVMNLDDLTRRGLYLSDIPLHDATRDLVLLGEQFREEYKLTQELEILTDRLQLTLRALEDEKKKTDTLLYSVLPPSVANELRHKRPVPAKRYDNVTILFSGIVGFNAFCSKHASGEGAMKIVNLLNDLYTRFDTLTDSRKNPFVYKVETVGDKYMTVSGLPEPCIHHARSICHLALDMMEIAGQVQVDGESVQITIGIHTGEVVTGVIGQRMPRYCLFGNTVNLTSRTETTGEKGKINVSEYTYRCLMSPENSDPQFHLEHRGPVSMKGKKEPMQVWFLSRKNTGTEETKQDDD
Description: Cell-Based sGC Functional Assay (CASA Assay), cGMP generation in CHO-K1/sGC cells.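 Further: reference Compound A is a published heme-dependent sGC activator.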 Particulars: maximum cGMP production of Compound A set to 100% activation, read-out: % Act. (percent activation relative to Compound A). The method in brief: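 Intracellular cGMP quantified by HTRF competition after 1 h, 37 °C compound exposure, with or without 1 μM DETA-NO, in stable CHO-K1/sGC α1/β1 cells (4×10^5/mL; buffer with 0.5 mM IBMX, 5 mM MgCl2, 10 mM HEPES, 0.05% BSA; 2.5% DMSO). Activation normalized to reference Compound A maximum; 4P fit.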

The test system of assay [1] is Spontaneously hypertensive rats (SHR). Description: Acute Efficacy in Spontaneously Hypertensive Rats (SHR), telemetry blood pressure. It is filed as in vivo, rat. The conditions noted are these: single oral gavage. The procedure, abridged: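 Male SHR fitted with aortic telemetry transmitters and recovered 14 days; conscious blood pressure sampled 30 s every 10 min. Single oral gavage dose (vehicle 10% transcutol/20% Cremophor/70% water); hourly SBP change versus prior-day vehicle baseline, reported as maximum peak decrease.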

Regarding `CC1(c2ccc(Cl)cn2)C(=O)Nc2nc(-c3cn4ncnc4c(CCC(F)(F)F)n3)nc(N)c21` (stereo not drawn) [Example 79A, 4-amino-5-(5-chloropyridin-2-yl)-5-methyl-2-(8-(3,3,3-trifluoropropyl)-[1,2,4]triazolo[1,5-a]pyrazin-6-yl)-5H-pyrrolo[2,3-d]pyrimidin-6(7H)-one], on sGC α1/β1 heterodimer, the Emax was 152%. Moreover, the “Maximum peak decrease of systolic blood pressure (SBP) in SHR, Cat.” value (“Maximum peak decrease” below) in assay [1] (P.O. 1 mpk) was “B (Category B=SBP in SHRs 20-40 mmHg)”.
For the compound `C[C@@]1(c2ccc(F)cc2)C(=O)Nc2nc(-c3cn4ncnc4c(Cc4ccc(F)cc4)n3)nc(N)c21` [Example 85B, (S)-4-amino-2-(8-(4-fluorobenzyl)-[1,2,4]triazolo[1,5-a]pyrazin-6-yl)-5-(4-fluorophenyl)-5-methyl-5H-pyrrolo[2,3-d]pyrimidin-6(7H)-one], the Emax on sGC α1/β1 heterodimer was 106%. In addition, the “Maximum peak decrease” value in assay [1] (P.O. 0.3 mpk) is given as “C (Category C=SBP in SHRs >40 mmHg)”.
In the case of `Cc1nc2c(CCC(F)(F)C(F)(F)F)nc(-c3nc(N)c4c(n3)NC(=O)[C@@]4(C)c3ccc(F)cc3)cn2n1` [Example 88B, (S)-4-amino-5-(4-fluorophenyl)-5-methyl-2-(2-methyl-8-(3,3,4,4,4-pentafluorobutyl)-[1,2,4]triazolo[1,5-a]pyrazin-6-yl)-5H-pyrrolo[2,3-d)pyrimidin-6(7H)-one], the Emax at sGC α1/β1 heterodimer came out at 137%. In assay [1] (P.O. 1 mpk), the “Maximum peak decrease” value was “C (Category C=SBP in SHRs >40 mmHg)”.
Taken in the same sequence, the figures for `CC1(c2ccc(Cl)cc2)C(=O)Nc2nc(-c3cn4ncnc4cn3)nc(N)c21` (stereo not drawn) [Example 94A, 2-([1,2,4]triazolo[1,5-a]pyrazin-6-yl)-4-amino-5-(4-chlorophenyl)-5-methyl-5H-pyrrolo[2,3-d]pyrimidin-6(7H)-one] were 138% and “C (Category C=SBP in SHRs >40 mmHg)”.
For the compound `CC1(c2cn(C3CC3)nn2)C(=O)Nc2nc(-c3cn4ncnc4c(CCC(F)(F)C(F)(F)F)n3)nc(N)c21` (stereo not drawn) [Example 95B, 4-Amino-5-(1-cyclopropyl-1H-1,2,3-triazol-4-yl)-5-methyl-2-(8-(3,3,4,4,4-pentafluorobutyl)-[1,2,4]triazolo[1,5-a]pyrazin-6-yl)-5H-pyrrolo[2,3-d]pyrimidin-6(7H)-one], the Emax on sGC α1/β1 heterodimer was 74%. Further, in assay [1] (P.O. 0.3 mpk), the “Maximum peak decrease” value is “C (Category C=SBP in SHRs >40 mmHg)”.
As to `CC1(c2nnc(C3CC3)o2)C(=O)Nc2nc(-c3cn4ncnc4c(CCC(F)(F)C(F)(F)F)n3)nc(N)c21` (stereo not drawn) [Example 98B, 4-amino-5-(5-cyclopropyl-1,3,4-oxadiazol-2-yl)-5-methyl-2-(8-(3,3,4,4,4-pentafluorobutyl)-[1,2,4]triazolo[1,5-a]pyrazin-6-yl)-5H-pyrrolo[2,3-d]pyrimidin-6(7H)-one], the Emax at sGC α1/β1 heterodimer was 164%. Moreover, in assay [1] (P.O. 1 mpk), the “Maximum peak decrease” value was “B (Category B=SBP in SHRs 20-40 mmHg)”.
Consider `Cc1nc2c(CCC(F)(F)C(F)(F)F)nc(-c3nc(N)c4c(n3)NC(=O)C4(C)c3nnc(C4CC4)o3)cn2n1` (stereo not drawn) [Example 103A, 4-amino-5-(5-cyclopropyl-1,3,4-oxadiazol-2-yl)-5-methyl-2-(2-methyl-8-(3,3,4,4,4-pentafluorobutyl)-[1,2,4]triazolo[1,5-a]pyrazin-6-yl)-5H-pyrrolo[2,3-d]pyrimidin-6(7H)-one], for which the Emax on sGC α1/β1 heterodimer was found to be 104%. Besides, the “Maximum peak decrease” value in assay [1] (P.O. 2 mpk) is on record as “A (Category A=SBP in SHRs <20 mmHg)”.
For `Nc1nc(-c2cn3ncnc3c(CCCC(F)(F)F)n2)nc2c1C(c1nnc(C3CC3)o1)(C1CC1)C(=O)N2` (stereo not drawn) [Example 104A, 4-amino-5-cyclopropyl-5-(5-cyclopropyl-1,3,4-oxadiazol-2-yl)-2-(8-(4,4,4-trifluorobutyl)-[1,2,4]triazolo[1,5-a]pyrazin-6-yl)-5H-pyrrolo[2,3-d]pyrimidin-6(7H)-one], the Emax at sGC α1/β1 heterodimer turned out to be 117%. In addition, the “Maximum peak decrease” value in assay [1] (P.O. 3 mpk) was “C (Category C=SBP in SHRs >40 mmHg)”.
Regarding `CCCCc1nc(-c2nc(N)c3c(n2)NC(=O)C3(c2nnc(C(F)(F)F)o2)C2CC2)cn2ncnc12` (stereo not drawn) [Example 105A, 4-amino-2-(8-butyl-[1,2,4]triazolo[1,5-a]pyrazin-6-yl)-5-cyclopropyl-5-(5-(trifluoromethyl)-1,3,4-oxadiazol-2-yl)-5H-pyrrolo[2,3-d]pyrimidin-6(7H)-one], the Emax at sGC α1/β1 heterodimer stood at 176%. For the same compound, the “Maximum peak decrease” value in assay [1] (P.O. 0.3 mpk) is listed as “B (Category B=SBP in SHRs 20-40 mmHg)”.
With `Nc1nc(-c2cn3ncnc3c(CCCC(F)(F)F)n2)nc2c1C(c1nnc(C(F)(F)F)o1)(C1CC1)C(=O)N2` (stereo not drawn) [Example 106A, 4-amino-5-cyclopropyl-2-(8-(4,4,4-trifluorobutyl)-[1,2,4]triazolo[1,5-a]pyrazin-6-yl)-5-(5-(trifluoromethyl)-1,3,4-oxadiazol-2-yl)-5H-pyrrolo[2,3-d]pyrimidin-6(7H)-one], the Emax on sGC α1/β1 heterodimer came to 95%. Moreover, in assay [1] (P.O. 0.3 mpk), the “Maximum peak decrease” value is “C (Category C=SBP in SHRs >40 mmHg)”.
On to `Nc1nc(-c2cn3ncnc3c(CCC(F)(F)C(F)(F)F)n2)nc2c1C(c1nnc(C3CC3)o1)(C1CC1)C(=O)N2` (stereo not drawn) [Example 107A, 4-amion-5-cyclopropyl-5-(5-cyclopropyl-1,3,4-oxadiazol-2-yl)-2-(8-(3,3,4,4,4-pentafluorobutyl)-[1,2,4]triazolo[1,5-a]pyrazin-6-yl)-5H-pyrrolo[2,3-d]pyrimidin-6(7H)-one], for which the Emax at sGC α1/β1 heterodimer was 76%. In assay [1] (P.O. 3 mpk), the “Maximum peak decrease” value is “C (Category C=SBP in SHRs >40 mmHg)”.
Taken in the same sequence, the figures for `CC1(c2ccc(O)cn2)C(=O)Nc2nc(-c3cn4ncnc4c(CCC(F)(F)C(F)(F)F)n3)nc(N)c21` (stereo not drawn) [Example 110A, 4-Amino-5-(5-hydroxypyridin-2-yl)-5-methyl-2-(8-(3,3,4,4,4-pentafluorobutyl)-[1,2,4]triazolo[1,5-a]pyrazin-6-yl)-5,7-dihydro-6H-pyrrolo[2,3-d]pyrimidin-6-one] were 70% and “B (Category B=SBP in SHRs 20-40 mmHg)”.
In the same order, the values of `Nc1nc(-c2cn3ncnc3c(CCCC(F)(F)F)n2)nc2c1C(c1ccc(O)cn1)(C1CC1)C(=O)N2` (stereo not drawn) [Example 112A, 4-amino-5-cyclopropyl-5-(5-hydroxypyridin-2-yl)-2-(8-(4,4,4-trifluorobutyl)-[1,2,4]triazolo[1,5-a]pyrazin-6-yl)-5H-pyrrolo[2,3-d]pyrimidin-6(7H)-one] are 91% and “A (Category A=SBP in SHRs <20 mmHg)”.
On to `Nc1nc(-c2cn3ncnc3c(CCC(F)(F)C(F)(F)F)n2)nc2c1C(c1ccccn1)(C1CC1)C(=O)N2` (stereo not drawn) [Example 114A, 4-amino-5-cyclopropyl-2-(8-(3,3,4,4,4-pentafluorobutyl)-[1,2,4]triazolo[1,5-a]pyrazin-6-yl)-5-(pyridin-2-yl)-5,7-dihydro-6H-pyrrolo[2,3-d]pyrimidin-6-one], for which the Emax at sGC α1/β1 heterodimer was 122%. Moreover, the “Maximum peak decrease” value in assay [1] (P.O. 1 mpk) is listed as “B (Category B=SBP in SHRs 20-40 mmHg)”.
In the same order, the values of `Nc1nc(-c2cn3ncnc3c(CCCC(F)(F)F)n2)nc2c1C(c1ccccn1)(C1CC1)C(=O)N2` (stereo not drawn) [Example 115A, 4-amino-5-cyclopropyl-5-(pyridin-2-yl)-2-(8-(4,4,4-trifluorobutyl)-[1,2,4]triazolo[1,5-a]pyrazin-6-yl)-5H-pyrrolo[2,3-d]pyrimidin-6(7H)-one] are 118% and “B (Category B=SBP in SHRs 20-40 mmHg)”.

The values are drawn from US10925876B2, “Methods for using triazolo-pyrazinyl soluble guanylate cyclase activators in fibrotic disorders” (Merck Sharp & Dohme Corp., priority 2016, dated 2021).
